What was measured:
[1] = system: RAW 264.7 cell line; assay: Nitric oxide (NO) production assay in LPS-treated RAW 264.7 (Griess reagent); format: cell-based, mouse; conditions: for NO production, combined treatment / NO production compared to the control / NO production rate compared with control: LPS 100 ng/mL; for NO production compared to the control / NO production rate compared with control: independent treatment; for NO production rate compared with control: 10 μg/mL; for inhibitory effect on NO production (in words): LPS-induced RAW 264.7, independent treatment
Description: (§1) RAW 264.7 cell line, a mouse macrophage cell line was purchased from KCLB (Korean Cell Line Bank, Korea). After RAW 264.7 was added with 10% fetal bovine serum (FBS, GIBCO, USA) and 1% antibiotics-antimycotic (GIBCO, USA), the cell was subcultured in Dulbecco's modified Eagle's medium (DMEM, WELGENE, Korea) in a 37° C., 5% CO2 incubator (Thermo Fisher Inc., USA).
After RAW 264.7 cell line was independently treated with any one of the flavonoid componentsor Sorbus commixta extract, and was combinedly treated with any one of the flavonoid components and the Sorbus commixta extract, an evaluation of Nitric Oxide production (NO assay) was conducted to identify effects on NO secretion induced by LPS.
At this time, RAW 264.7 cells were seeded at 1×10^5 cells/well in 96-well plates and cultured in a 37° C., 5% CO2 incubator for 24 hours. Each cell was pretreated with samples by concentration (pinocembrin, quercetin, kaempferol, glangin, and chrysin at concentrations of 1, 2.5, 5, and 10 μg/mL, caffeic acid and p-Coumaric acid at concentrations of 2.5, 5, 10, and 25 μg/mL, and Sorbus commixta ethanol extract at concentrations of 25, 50, 100, and 250 ppm), respectively, and then the cells were treated with LPS (Sigma-Aldrich Inc, USA) to a final concentration of 100 ng/mL to induce the inflammatory response for 20 hours. After the induction of the inflammatory response, a 100 μL supernatant of a 96-well plate was added with a 100 μL Griess reagent (Sigma-Aldrich Inc., USA) at a concentration of 40 mg/mL (in water), and reacted in the dark for 15 minutes, and the optical density was measured at 540 nm using a Tecan infinite 200 microplate reader (Tecan Trading AG, Switzerland). A quantitative line was drawn using Sodium nitrite (Sigma-Aldrich Inc., USA), and each value of optical density was substituted to the quantitative line to determine the amount of produced Nitric Oxide (NO).
In the inflammatory response of macrophages induced by LPS treatment, the treatment effects of any one of the flavonoid components or Sorbus commixta ethanol extract on NO production were determined.

[2] = system: RBL-2H3 basophilic cell line; assay: beta-Hexosaminidase release assay (degranulation by anti-DNP-IgE / DNP-BSA); format: cell-based, Rat; conditions: for beta-Hexosaminidase released compared to the positive control / degree of degranulation of RBL-2H3 cells (in words): independent treatment; for beta-Hexosaminidase released compared to the positive control: 1 hour pretreatment
Description: Effects of quercetin, kaempferol, chrysin, and Sorbus commixta ethanolic extract on allergic response were determined by measuring the release of beta-Hexosaminidase through degranulation caused by the antibody-antigen binding in the RBL-2H3 basophilic cells. The RBL-2H3 basophilic cell line of Rat was purchased from ATCC (American Type Culture Collection, USA), and then it was added with a 10% fetal bovine serum and a 1% antibiotics-antimycotic in Dulbecco's modified Eagle's medium, and was subcultured in a 37° C., 5% CO2 incubator. A beta-Hexosaminidase release assay was carried out to figure out effects of independent treatment of any one of the flavonoid components or the Sorbus commixta ethanolic extract, and combined treatment of any one of the flavonoid components (quercetin, kaempferol, chrysin) with Sorbus commixta ethanolic extract on the release of beta-Hexosaminidase through the degranulation of RBL-2H3 basophilic cell line. The RBL-2H3 cells were seeded at 8×10^4 cells/well in the 96 well plates, and stabilized in a 37° C., 5% CO2 incubator for 3 hours, then treated with anti-DNP-IgE (Sigma-Aldrich Inc., USA) to a final concentration of 250 ng/mL for cell sensitization, and incubated for 24 hours. After culturing, the supernatant liquid was removed and washed twice with Siraganian buffer (NaCl 119 mM, KCl 5 mM, Glucose 5.6 mM, PIPES 25 mM, MgCl2, 0.4 mM, CaCl2 1 mM, BSA 0.1%, pH 7.2, Biosolution, Korea), and concentration-specific samples dissolved in Siraganian buffer were pretreated into the cells for 1 hour. After the pretreatment, the final concentration of DNP-BSA (Sigma-Aldrich Inc., USA) was treated to be at 150 ng/mL, and cultured for 1 hour to induce degranulation. After degranulation induction, 80 μL of supernatant and 20 μL of 10 mM 4-Nitrophenyl N-acetyl-β-D-glucosaminide (in 0.1 M citrate buffer, pH 4.5, Sigma-Aldrich Inc., USA) were reacted in the 96 well plate for 4 hours at a 37° C. incubator. After 4 hours, the reaction was terminated by adding 100 μL of 0.5 M sodium carbonate, and the optical density was measured at 405 nm using a Tecan infinite 200 microplate reader. First, RBL-2H3 cells' degranulation induced by antibody-antigen binding was determined when independently treated with any one of the flavonoid components or Sorbus commixta ethanolic extract. RBL-2H3 cells were sensitized with antibodies for one day, pretreated with different concentration levels of 3 selected flavonoid components, or Sorbus commixta ethanol extract for one hour, followed by additionally being treated with antigens. A group treated with neither the extract nor the antigen was a negative control, and a group independently treated with ethanol as the solvent for the sample and induced for degranulation only was a positive control. When RBL-2H3 cell degranulation is induced by antibody-antigen binding, beta-Hexosaminidase, an indicator of early response is released. On top of that, a substrate addition (P-NAG) leads to the degradation of the substrate and the suspension of the degradation reaction, resulting in a color change. In that case, the amount of beta-hexosaminidase may be determined by measuring the optical density, which may it possible to compare the degree of induced inhibition or induced activation of degranulation. The changes in the amount of beta-Hexosaminidase released by the combined treatment of the Sorbus commixta ethanolic extract with any one of the three selected active ingredients of the flavonoid components were intended to be determined. A group treated with neither the extract nor the antigen was a negative control, and a group independently treated with ethanol as the solvent for the sample and induced for degranulation only was a positive control.

[3] = system: RAW 264.7 cell line; assay: MTT cell viability assay, RAW 264.7; format: cell-based; conditions: mouse, 24 h, 10 μg/mL
Description: as §1
A cell viability rate was analyzed by carrying out an MTT assay in order to determine the toxicity of the flavonoid components and Sorbus commixta ethanolic extract on the cell line treatment. The RAW 264.7 cell line was seeded 5×10^4 cells/well in a 96 well plate, and cultured in a 37° C., 5% CO2 incubator. After the culture, the flavonoid components and Sorbus commixta ethanolic extract were treated and additionally treated for the next 24 hours. After the additional culture, a 0.1 mg/mL MTT solution (Sigma-Aldrich Inc., USA) was dispensed in each well, the cells were cultured for 4 hours before the supernatant was removed. The resulting formazan was dissolved by seeding 100 μL of DMSO (Sigma-Aldrich Inc., USA) into each well, followed by orbital shaking (87.9 rpm) for 15 minutes, and optical density was measured at 540 nm using a Tecan infinite 200 microplate reader. The measured values of optical density were described as a percentage by substituting into the equation below. […]

[4] = flavonoid 1 μg/mL (first of series) combined with Sorbus commixta ethanol extract
[5] = flavonoid 2.5 μg/mL (second of series) combined with Sorbus commixta ethanol extract
[6] = flavonoid 5 μg/mL (third of series) combined with Sorbus commixta ethanol extract
[7] = flavonoid 10 μg/mL (fourth of series) combined with Sorbus commixta ethanol extract
[8] = 1 μg/mL (first of series 1, 2.5, 5, 10 μg/mL)

Compound | NO production, combined treatment [1, 4] | NO production, combined treatment [1, 5] | NO production, combined treatment [1, 6] | NO production, combined treatment [1, 7] | NO production compared to the control [1, 8] | NO production compared to the control ([1]; 2.5 μg/mL (second of series)) | NO production compared to the control ([1]; 5 μg/mL (third of series)) | NO production rate compared with control [1] | production rate of beta-Hexosaminidase compared to the control group ([2]; 1 μg/mL mixed with 25 ppm of Sorbus commixta ethanol extract) | beta-Hexosaminidase released compared to the positive control ([2]; 1 μg/mL) | cell viability rate [3] | inhibitory effect on NO production (in words) [1] | production rate of beta-Hexosaminidase compared to the control group ([2]; 0.5 μg/mL mixed with 25 ppm of Sorbus commixta ethanol extract) | degree of degranulation of RBL-2H3 cells (in words) [2] | beta-Hexosaminidase released compared to the positive control ([2]; 0.5 μg/mL) | production rate of beta-Hexosaminidase compared to the control group ([2]; 2.5 μg/mL mixed with 25 ppm of Sorbus commixta ethanol extract)
O=c1cc(-c2ccccc2)oc2cc(O)cc(O)c12 [chrysin] | 72% | 55% | 38% | 9% | 89% | 74% | 43% | 10% | 95.9% | 83% |  |  |  |  |  | 
p-coumaric acid (4-Hydroxycinnamic acid) |  |  |  |  |  |  |  | 90% |  |  |  |  |  |  |  | 
O=C1C[C@@H](c2ccccc2)Oc2cc(O)cc(O)c21 [pinocembrin] |  |  |  |  |  |  |  | 90% |  |  | greater than 80% |  |  |  |  | 
O=c1c(O)c(-c2ccccc2)oc2cc(O)cc(O)c12 [galangin] |  |  |  |  |  |  |  | 82% |  |  | greater than 80% |  |  |  |  | 
O=C(O)/C=C/c1ccc(O)c(O)c1 [caffeic acid] |  |  |  |  |  |  |  | 97% |  |  |  |  |  |  |  | 
O=c1c(O)c(-c2ccc(O)c(O)c2)oc2cc(O)cc(O)c12 [quercetin] | 78% | 70% | 55% | 39% | 97% | 81% | 63% | 41% |  |  |  | highest inhibitory effect on NO production | 86.8% | decreased the degree of degranulation | 64% | 
O=c1c(O)c(-c2ccc(O)cc2)oc2cc(O)cc(O)c12 [kaempferol] | 75% | 71% | 60% | 39% | 92% | 85% | 66% | 42% |  |  |  | highest inhibitory effect on NO production |  | decreased the degree of degranulation | 85% | 79.8%
